Measured values taken from patent publication US5847074A, “Phospholipase C-inhibiting peptides” (Kyowa Hakko Kogyo Co., Ltd., priority 1993, dated 1998).
≈ marks a conversion by molar mass, not a printed value. Where a SMILES comes first, the peptide text is derived from it. Bridges are numbered along the chain shown (N, C = ends). The star is where a group is joined. Octanoyl = CCCCCCCC(=O)*

Legend:
PLC-γ1 = target: T1, PLC-γ1 (Bos taurus, UniProt P08487); assay: PLC-inhibiting activity ([3H]PIP2 hydrolysis); type: biochemical; settings: test peptide concentration 220 μM; PI-PLC-γ1 from bovine thymus; 37° C., 10 minutes
T1 construct: A sample of PLC-γ1 was prepared from bovine thymus; from tissue; host or cells: bovine thymus
T1 sequence (P08487 1-1291): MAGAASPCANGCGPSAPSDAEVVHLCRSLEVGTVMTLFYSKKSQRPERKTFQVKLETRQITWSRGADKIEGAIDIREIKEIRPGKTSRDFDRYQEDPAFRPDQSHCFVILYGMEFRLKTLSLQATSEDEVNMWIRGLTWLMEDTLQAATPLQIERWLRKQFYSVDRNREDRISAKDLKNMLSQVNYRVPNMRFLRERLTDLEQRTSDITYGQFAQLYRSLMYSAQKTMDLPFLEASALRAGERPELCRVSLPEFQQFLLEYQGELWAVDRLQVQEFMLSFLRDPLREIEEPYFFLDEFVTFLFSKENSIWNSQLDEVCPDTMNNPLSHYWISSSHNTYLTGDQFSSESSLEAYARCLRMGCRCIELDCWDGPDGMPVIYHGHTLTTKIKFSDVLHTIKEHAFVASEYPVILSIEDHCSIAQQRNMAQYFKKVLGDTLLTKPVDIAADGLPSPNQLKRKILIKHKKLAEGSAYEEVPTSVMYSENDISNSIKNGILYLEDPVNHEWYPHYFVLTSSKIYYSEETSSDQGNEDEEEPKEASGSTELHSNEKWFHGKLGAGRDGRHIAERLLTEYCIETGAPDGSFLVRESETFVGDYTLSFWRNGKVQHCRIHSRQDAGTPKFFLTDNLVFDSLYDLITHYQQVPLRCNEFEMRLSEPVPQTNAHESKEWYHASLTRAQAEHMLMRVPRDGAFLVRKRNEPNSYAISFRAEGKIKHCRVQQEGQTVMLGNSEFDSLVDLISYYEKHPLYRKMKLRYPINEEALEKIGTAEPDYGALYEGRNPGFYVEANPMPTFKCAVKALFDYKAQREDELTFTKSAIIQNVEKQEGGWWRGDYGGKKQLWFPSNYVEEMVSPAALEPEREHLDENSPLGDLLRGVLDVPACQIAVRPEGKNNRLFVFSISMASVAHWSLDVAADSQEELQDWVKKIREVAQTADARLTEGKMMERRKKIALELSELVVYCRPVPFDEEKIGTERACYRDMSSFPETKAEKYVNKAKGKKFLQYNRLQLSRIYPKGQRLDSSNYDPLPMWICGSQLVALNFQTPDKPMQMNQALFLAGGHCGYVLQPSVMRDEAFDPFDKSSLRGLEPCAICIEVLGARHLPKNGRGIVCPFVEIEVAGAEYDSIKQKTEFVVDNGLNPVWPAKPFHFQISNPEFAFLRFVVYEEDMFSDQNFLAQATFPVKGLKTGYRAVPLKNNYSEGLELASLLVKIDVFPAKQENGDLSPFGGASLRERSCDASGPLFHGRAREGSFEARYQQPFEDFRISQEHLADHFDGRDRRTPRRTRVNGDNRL
Protocol: A sample of PLC-γ1 was prepared from bovine thymus according to the method described in Y. Homma et al., Biochem.J., 269, 13 (1990).
A solution having the composition shown in Table 2 was prepared on ice and the reaction was initiated by heating it to 37° C. After incubation for 10 minutes, 2 ml of a chloroform-methanol (2:1, V/V) mixed solution was added to stop the reaction. The produced inositol phosphate was extracted with 0.5 ml of 1N hydrochloric acid. The extract was separated into two liquid phases by centrifugation (2000×g, 3 minutes) and the amount of ^3 H in the supernatant (0.7 ml) was measured with a scintillation counter. […]
Percent inhibition (X) was calculated from the following equation.
where A is the obtained value of specific radioactivity, B is the value of specific radioactivity when the same amount of water was added instead of an aqueous solution of a test peptide, and C is the value of specific radioactivity when the same amount of water was added instead of a sample and an aqueous solution of a test peptide.

[1] = system: Proteus vulgaris ATCC6897; type: cell-based; settings: ATCC6897, pH 7
Protocol: Antimicrobial activity was determined by an agar dilution method using a medium consisting of Bacto-tryptone (available from Difco) (3 g/l), meat extract (1 g/l), glucose (1 g/l) and agar (16 g/l) (pH 7.0).

KMS-4 cells = assay: Cell proliferation-inhibiting activity (BrdU incorporation); type: cell-based; settings: test peptide concentration 6 μM, incubation for 17 hours
Protocol: The cell proliferation-inhibiting activity of the test peptides was determined using a cell proliferation-detecting kit available from Amersham in the following manner. KMS-4 cells (M. Nanba et al., International Journal of Cancer, 32, 697 (1983)) were added to a DMEM medium containing a 10% fetal calf serum (available from Nissui Pharmaceutical) and the cell concentration was adjusted to 1-2×10^4 cells/ml. The resulting cell suspension (1 ml) was then placed in each well of a 24-well plate (available from Corning) and incubated in a CO2 incubator (37° C., 5% CO2) for 2 days. Subsequently, the medium was replaced with a fresh DMEM medium containing a 10% fetal calf serum, and a test peptide was added, followed by incubation for 17 hours. […] The number of cells which incorporated BrdU and the total number of cells were counted within one visual field (about 200 cells) under microscopic examination and the percentage (%) of the stained cell counts per visual field was calculated. […] Cell proliferation-inhibiting activity was expressed by percent cell proliferation inhibition (X) which was calculated from the following equation. […]

inhibition at 220 µM (PLC-γ1): 56%
minimum inhibitory concentrations (MIC) [1]: 166 µg/mL (≈ 91 µM)
SMILES: CCCCCCCC(=O)N[C@H]1CSSC[C@@H](C(N)=O)NC(=O)[C@H](C(C)C)NC(=O)[C@@H]2CCCN2C(=O)[C@H](Cc2ccc(O)cc2)NC(=O)[C@H](CCCNC(=N)N)NC(=O)[C@H](CC(C)C)NC(=O)[C@H](CCCNC(=N)N)NC(=O)[C@H](CCSC)NC(=O)[C@H](CCCCN)NC(=O)[C@H](CCCNC(=N)N)NC(=O)[C@H](Cc2ccc(O)cc2)NC(=O)[C@H](CC(C)C)NC1=O [Compound (I-4)] (Octanoyl-CLYRKMRLRYPVC-NH2; disulfide 1-13)
Inhibition (%) of cell proliferation (KMS-4 cells): 61%
